Results on one substance are retold here after publication PMC7816196, “Antitubercular 2-Pyrazolylpyrimidinones: Structure–Activity Relationship and Mode-of-Action Studies” (Journal of Medicinal Chemistry, 2021).

The subject of one data set is CHO cell-line. The data set can be described thus: Cytotoxicity, MTT assay, CHO cells. To be noted: read-out: Cytotoxicity (CHO IC50). For orientation: Tetrazolium dyes change colour on reduction, which living cells bring about.
The next data set has as its system Mtb H37Rv. As to the kind of experiment: MIC against Mtb H37Rv, Alamar Blue broth microdilution. In kind it is cell-based, Mycobacterium tuberculosis.
Data set [1] is described as follows: Kinetic aqueous solubility at pH 7.4. The format is physicochemical. To be noted: aqueous (kinetic) solubility at pH 7.4; read-out: Solubility. The procedure:
3) In vitro ADME - assays
The kinetic solubility assay was p erfo rmed using a miniaturised shake flask method. 10 mM stock solutions of each of the test compounds were used to prepare calibration standards (10-220 µM) in DMSO. The same 10 mM stock soluti ons were accurately dispensed in duplicat e into 96-well plates and the DMSO dried down (MiVac GeneVac, 90 min, 37 °C). Thereafter, the samples were reconstituted (200 µM) in phosphate buffered saline (pH 7. 4) and shaken (20 hours,25 °C). The solutions were centrifuged, and the supernatant was an alysed by means of HPLC-DAD (Agilent 1200 Rapid Resolution HPLC with a diode array detector). Best fit calibration curves were constructed using the calibration standards, which were used to determine the aqueous samples’ solubility.4
The metabolic stability assay was performed in dup licate in a 96-well micro t itre plate. The test compounds (0.1 µM) were incubated individually in mouse, rat and pooled human liver microsomes (final protei n concentration of 0.4 m g/mL; XenoTech, Lenexa, KS), suspended in 0.1M phosphate buffer (pH 7.4) for predetermined time points, in the presence and abs ence of the cofactor NADPH (1 mM). Reactions were quenched by adding 300 µL of ice cold acetonitrile containing internal standard (carbamazepine, 0.0236 µg/mL). The samples were centrifuged and test in the supernatant were an alysed by means of LC-MS/MS ((Agilent Rapid Resolution HPLC, AB SCIEX 4500 MS). The rel ative loss of parent compound over time w as monitored and plots (concentration vs. time) were prepared per compound to determine the first order rate constant for compound depletion. This was in turn used to calculate h alf-life, in vitro intrinsic clearance and in vivo hepatic extraction ratio. Metabolite search es were not conducted during the met abolic stability assay.5

Where two headings read alike, the source gives them in different places.

Regarding “6-(3,5-Dimethyl-1H-pyrazol-1-yl)-4-phenylpyridin-2(1H)-one [Compound 5]”, the concentration for half-maximal inhibition (IC50) with CHO cell-line is > 50 µM. For the same substance, the MIC against Mtb H37Rv is >50 µM; in the data set on Mtb H37Rv (supplement csv, medium not stated), >50 µM. Moreover, the solubility at 20 h in data set [1] was 185 µM.

A word on the IC50: it is the concentration that inhibits the measured activity by half. As usually defined, the MIC is the least concentration at which growth counts as inhibited. A low value points to a more susceptible organism. By solubility is commonly meant the concentration that dissolves in the medium under given conditions.
